The values below come from patent US9751887B2, “Imidazo[1,2-b]pyridazine derivatives as kinase inhibitors” (Daiichi Sankyo Company, Limited, priority 2012, dated 2017).

pIC50: −log10 of the molar value.

In assay [1] the target is T1, ROS1 (Homo sapiens, UniProt P08922).
T1 construct: purchased Carna Biosciences 08-163
The experiment in a line: ROS1 kinase inhibitory activity evaluation (mobility shift, EZ Reader II). It counts as biochemical. As to conditions: ROS1 25 pg/μL, FL-Peptide 22 substrate, three separate measurements. Here is the method: Next, a substrate reaction solution was prepared. […] Then, the reaction stop solution was added thereto at a concentration of 40 μL/well. Substrate phosphorylation intensity was measured using EZ Reader II (Caliper Life Sciences).

Assay [2] concerns the target T1, ROS1. The assay can be described thus: ROS1 autophosphorylation inhibitory activity evaluation (ADP-Glo). The assay is classed as biochemical. As to conditions: 200 nM inactive ROS1, ATP 1 mM, 25° C. 1.5 hours, ADP generated, four separate measurements. The method, boiled down:
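IC50 was derived by curve fitting of ADP output measured with ADP-Glo reagents. The output reflects ROS1 self-phosphorylation over 1.5 hours at 25° C. Buffer was HEPES pH 7.5 with MgCl2, Brij-58 and DTT, and ATP was 1 mM final.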

Assay [3] concerns HCC78 cells having ROS1 fusion gene. The experiment in a line: HCC78 cell growth assay (CellTiter-Glo). The assay is classed as cell-based. As to conditions: Homo sapiens, HCC78, 72 h, 72 hours culture, 2% FBS medium, luminescence, four separate measurements; read-out: growth inhibitory effect on HCC78 cells having ROS1 fusion gene IC50. A general note: ATP-based viability assays read luminescence as a measure of living cells.

In general, pIC50 refers to −log10 of the IC50, conventionally taken in molar units.

T1 sequence (P08922 28-2347): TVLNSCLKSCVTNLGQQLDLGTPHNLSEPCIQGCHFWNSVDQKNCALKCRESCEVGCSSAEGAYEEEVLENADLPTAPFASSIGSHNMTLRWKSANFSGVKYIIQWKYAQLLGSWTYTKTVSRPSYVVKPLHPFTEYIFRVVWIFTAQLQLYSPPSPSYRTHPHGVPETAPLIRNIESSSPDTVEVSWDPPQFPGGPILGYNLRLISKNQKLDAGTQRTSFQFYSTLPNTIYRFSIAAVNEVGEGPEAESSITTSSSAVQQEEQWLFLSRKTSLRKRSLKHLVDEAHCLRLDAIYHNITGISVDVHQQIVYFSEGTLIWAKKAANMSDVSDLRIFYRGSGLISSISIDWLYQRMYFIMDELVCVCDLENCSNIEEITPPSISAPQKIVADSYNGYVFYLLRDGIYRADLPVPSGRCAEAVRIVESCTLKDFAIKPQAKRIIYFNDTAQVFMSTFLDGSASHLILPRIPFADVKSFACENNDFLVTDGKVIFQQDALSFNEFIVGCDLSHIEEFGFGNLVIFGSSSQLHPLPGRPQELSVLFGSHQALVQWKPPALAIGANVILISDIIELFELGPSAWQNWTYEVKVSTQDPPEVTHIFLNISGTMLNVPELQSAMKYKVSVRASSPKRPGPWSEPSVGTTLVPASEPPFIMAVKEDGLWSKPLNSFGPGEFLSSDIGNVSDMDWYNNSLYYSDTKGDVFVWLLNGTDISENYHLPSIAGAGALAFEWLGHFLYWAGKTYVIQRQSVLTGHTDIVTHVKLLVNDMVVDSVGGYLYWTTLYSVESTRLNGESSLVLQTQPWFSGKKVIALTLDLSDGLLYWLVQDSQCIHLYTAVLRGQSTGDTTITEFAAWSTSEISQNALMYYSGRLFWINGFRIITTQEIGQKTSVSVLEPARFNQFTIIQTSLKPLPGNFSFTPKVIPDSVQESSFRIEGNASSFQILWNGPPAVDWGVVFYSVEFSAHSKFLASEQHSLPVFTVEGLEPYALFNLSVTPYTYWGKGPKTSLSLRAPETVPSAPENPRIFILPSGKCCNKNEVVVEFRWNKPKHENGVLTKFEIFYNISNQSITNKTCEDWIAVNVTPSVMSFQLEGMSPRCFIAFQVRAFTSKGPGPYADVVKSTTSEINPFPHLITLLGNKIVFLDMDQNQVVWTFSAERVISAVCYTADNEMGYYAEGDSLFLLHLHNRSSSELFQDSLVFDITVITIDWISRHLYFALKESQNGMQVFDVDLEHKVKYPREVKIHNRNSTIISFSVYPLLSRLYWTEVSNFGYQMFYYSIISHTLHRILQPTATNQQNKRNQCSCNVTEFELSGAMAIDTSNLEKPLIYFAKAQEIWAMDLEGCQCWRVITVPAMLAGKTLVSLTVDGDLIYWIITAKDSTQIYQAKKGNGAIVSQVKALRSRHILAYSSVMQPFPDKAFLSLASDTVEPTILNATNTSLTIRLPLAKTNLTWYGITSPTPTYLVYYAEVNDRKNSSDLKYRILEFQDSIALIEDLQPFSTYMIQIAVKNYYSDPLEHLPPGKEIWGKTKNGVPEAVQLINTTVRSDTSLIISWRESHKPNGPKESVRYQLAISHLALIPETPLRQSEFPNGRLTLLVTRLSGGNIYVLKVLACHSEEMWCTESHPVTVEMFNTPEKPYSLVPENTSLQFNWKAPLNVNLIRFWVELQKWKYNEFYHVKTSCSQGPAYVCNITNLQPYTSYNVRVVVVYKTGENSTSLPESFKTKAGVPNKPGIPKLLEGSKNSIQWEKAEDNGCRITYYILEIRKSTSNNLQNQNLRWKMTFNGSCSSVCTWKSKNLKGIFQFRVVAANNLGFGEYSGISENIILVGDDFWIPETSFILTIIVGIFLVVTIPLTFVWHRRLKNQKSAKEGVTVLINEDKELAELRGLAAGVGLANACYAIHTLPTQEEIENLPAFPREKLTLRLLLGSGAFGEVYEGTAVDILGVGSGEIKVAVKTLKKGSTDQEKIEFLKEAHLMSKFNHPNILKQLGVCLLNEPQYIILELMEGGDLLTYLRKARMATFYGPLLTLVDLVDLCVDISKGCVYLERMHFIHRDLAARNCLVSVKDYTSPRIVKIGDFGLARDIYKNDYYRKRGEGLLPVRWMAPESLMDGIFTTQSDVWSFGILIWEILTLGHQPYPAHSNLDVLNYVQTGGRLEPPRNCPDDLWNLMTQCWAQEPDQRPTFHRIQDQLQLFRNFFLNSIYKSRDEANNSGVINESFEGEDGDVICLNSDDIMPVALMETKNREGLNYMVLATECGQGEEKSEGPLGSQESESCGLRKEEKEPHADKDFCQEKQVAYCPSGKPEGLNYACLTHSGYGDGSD

For `C[C@@H](Nc1ccc2ncc(-c3ccc(F)c(OC[C@@H]4CCN4)c3)n2n1)c1cccc(F)c1` [Example 64, 3-[3-[[(2S)-Azetidin-2-yl]methoxy]-4-fluoro-phenyl]-N-[(1R)-1-(3-fluorophenyl)ethyl]imidazo[1,2-b]pyridazin-6-amine], the pIC50 on ROS1 [1] was 8.00 to 9.00; at ROS1 [2], 6.82 to 7.00; in assay [3] it was 6.22 to 7.00.
Turning to `C[C@H](N)COc1cccc(-c2cnc3ccc(N[C@H](C)c4cccc(F)c4)nn23)c1` [Example 65, 3-[3-[(2S)-2-Aminopropoxy]phenyl]-N-[(1R)-1-(3-fluorophenyl)ethyl]imidazo[1,2-b]pyridazin-6-amine], the pIC50 at ROS1 [1] is 8.00 to 9.00; at ROS1 [2], > 7.70; in assay [3] it was 7.00 to 7.70.
Consider `CNCCCOc1cccc(-c2cnc3ccc(N[C@H](C)c4cccc(F)c4)nn23)c1` [Example 66, N-[(1R)-1-(3-Fluorophenyl)ethyl]-3-[3-[3-(methylamino)propoxy]phenyl]imidazo[1,2-b]pyridazin-6-amine], for which the results for the pIC50 (at ROS1 [1]; against ROS1 [2]; in assay [3]) were 8.00 to 9.00, > 7.70 and 7.00 to 7.70, respectively.
As for `C[C@@H](Nc1ccc2ncc(-c3cccc(OCCN)c3)n2n1)c1cccc(F)c1` [Example 67, 3-[3-(2-Aminoethoxy)phenyl]-N-[(1R)-1-(3-fluorophenyl)ethyl]imidazo[1,2-b]pyridazin-6-amine], the values for the pIC50 (on ROS1 [1]; against ROS1 [2]; in assay [3]) were 8.00 to 9.00, > 7.70 and 7.00 to 7.70, respectively.
For `C[C@@H](Nc1ccc2ncc(-c3cccc(OCCCN)c3)n2n1)c1cccc(F)c1` [Example 68, 3-[3-(3-Aminopropoxy)phenyl]-N-[(1R)-1-(3-fluorophenyl)ethyl]imidazo[1,2-b]pyridazin-6-amine], the pIC50 on ROS1 [1] was 8.00 to 9.00; against ROS1 [2], > 7.70; in assay [3], 7.00 to 7.70.
Regarding `C[C@@H](Nc1ccc2ncc(-c3ccc(OCCN(C)C)cc3)n2n1)c1cccc(F)c1` [Example 69, 3-[4-(2-Dimethylaminoethoxy)phenyl]-N-[(1R)-1-(3-fluorophenyl)ethyl]imidazo[1,2-b]pyridazin-6-amine], the pIC50 on ROS1 [1] is > 9.00; against ROS1 [2] it was > 7.70; in assay [3], > 7.70.
As to `C[C@@H](Nc1ccc2ncc(-c3ccc(OCCCN(C)C)cc3)n2n1)c1cccc(F)c1` [Example 70, 3-[4-[3-(Dimethylamino)propoxy]phenyl]-N-[(1R)-1-(3-fluorophenyl)ethyl]imidazo[1,2-b]pyridazin-6-amine], the pIC50 on ROS1 [1] was > 9.00; on ROS1 [2], > 7.70; in assay [3], 7.00 to 7.70.
On the same counts, the results for `C[C@@H](Nc1ccc2ncc(-c3ccc(OCCN(C)C)nc3)n2n1)c1cccc(F)c1` [Example 71, 3-[6-(2-Dimethylaminoethoxy)-3-pyridyl]-N-[(1R)-1-(3-fluorophenyl)ethyl]imidazo[1,2-b]pyridazin-6-amine] are 8.00 to 9.00, > 7.70 and > 7.70.
As to `NC1CC(=O)N(c2ccc(-c3cnc4ccc(NCc5ccccc5)nn34)cc2)C1` (stereo not drawn) [Example 72, 4-Amino-1-[4-[6-(benzylamino)imidazo[1,2-b]pyridazin-3-yl]phenyl]pyrrolidin-2-one], the pIC50 on ROS1 [1] is > 9.00; against ROS1 [2] it was > 7.70; in assay [3], > 7.70.
Take `NC1CC(=O)N(c2ccc(-c3cnc4ccc(OCc5cccc(F)c5)nn34)cc2)C1` (stereo not drawn) [Example 73, 4-Amino-1-[4-[6-[(3-fluorophenyl)methoxy]imidazo[1,2-b]pyridazin-3-yl]phenyl]pyrrolidin-2-one]: the pIC50 on ROS1 [1] is 8.00 to 9.00; against ROS1 [2], > 7.70; in assay [3], 7.00 to 7.70.
Turning to `NCC1CC(=O)N(c2ccc(-c3cnc4ccc(OCc5cccc(F)c5)nn34)cc2)C1` (stereo not drawn) [Example 74, 4-(Aminomethyl)-1-[4-[6-[(3-fluorophenyl)methoxy]imidazo[1,2-b]pyridazin-3-yl]phenyl]pyrrolidin-2-one], the pIC50 at ROS1 [1] is 8.00 to 9.00; at ROS1 [2], 6.82 to 7.00; in assay [3] it was 6.22 to 7.00.
On the same counts, the results for `NC1CCN(c2ccc(-c3cnc4ccc(OCc5cccc(F)c5)nn34)cc2)C1=O` (stereo not drawn) [Example 75, 3-Amino-1-[4-[6-[(3-fluorophenyl)methoxy]imidazo[1,2-b]pyridazin-3-yl]phenyl]pyrrolidin-2-one] are 8.00 to 9.00, 7.00 to 7.70 and 6.22 to 7.00.
As to `N[C@H]1CC(=O)N(c2ccc(-c3cnc4ccc(OCc5cccc(F)c5)nn34)cc2)C1` [Example 76, (4S)-4-Amino-1-[4-[6-[(3-fluorophenyl)methoxy]imidazo[1,2-b]pyridazin-3-yl]phenyl]pyrrolidin-2-one], the pIC50 on ROS1 [1] is > 9.00; at ROS1 [2], > 7.70; in assay [3], 7.00 to 7.70.
Regarding `CC1(N)CN(c2ccc(-c3cnc4ccc(OCc5cccc(F)c5)nn34)cc2)C(=O)C12CC2` (stereo not drawn) [Example 77, 7-Amino-5-[4-[6-[(3-fluorophenyl)methoxy]imidazo[1,2-b]pyridazin-3-yl]phenyl]-7-methyl-5-azaspiro[2.4]heptan-4-one], the values for the pIC50 (on ROS1 [1]; at ROS1 [2]; in assay [3]) were > 9.00, 7.00 to 7.70 and 7.00 to 7.70, respectively.
As to `C[C@@H](Oc1ccc2ncc(-c3ccc(N4C[C@H](N)CC4=O)cc3)n2n1)c1cccc(F)c1` [Example 78, (4R)-4-Amino-1-[4-[6-[(1R)-1-(3-fluorophenyl)ethoxy]imidazo[1,2-b]pyridazin-3-yl]phenyl]pyrrolidin-2-one], the pIC50 on ROS1 [1] was 8.00 to 9.00; on ROS1 [2] it was > 7.70; in assay [3], 7.00 to 7.70.
For the compound `CN[C@H]1CC(=O)N(c2ccc(-c3cnc4ccc(O[C@H](C)c5cccc(F)c5)nn34)cc2)C1` [Example 80, (4S)-1-[4-[6-[(1R)-1-(3-Fluorophenyl)ethoxy]imidazo[1,2-b]pyridazin-3-yl]phenyl]-4-(methylamino)pyrrolidin-2-one], the results for the pIC50 (at ROS1 [1]; at ROS1 [2]; in assay [3]) were > 9.00, > 7.70 and 7.00 to 7.70, respectively.
On the same counts, the results for `CN(Cc1cccc(F)c1)c1ccc2ncc(-c3ccc(N4CC(N)CC4=O)cc3)n2n1` (stereo not drawn) [Example 82, 4-Amino-1-[4-[6-[(3-fluorophenyl)methyl-methylamino]imidazo[1,2-b]pyridazin-3-yl]phenyl]pyrrolidin-2-one] are > 9.00, > 7.70 and 7.00 to 7.70.
On the same counts, the results for `CN(Cc1cccc(F)c1)c1ccc2ncc(-c3ccc(N4C[C@@H](N)CC4=O)c(F)c3)n2n1` [Example 83, (4S)-4-Amino-1-[2-fluoro-4-[6-[(3-fluorophenyl)methyl-methylamino]imidazo[1,2-b]pyridazin-3-yl]phenyl]pyrrolidin-2-one] are 8.00 to 9.00, 7.00 to 7.70 and 7.00 to 7.70.
Turning to `CN(Cc1cccc(F)c1)c1ccc2ncc(-c3ccc(N4CC(C)(N)CC4=O)cc3)n2n1` (stereo not drawn) [Example 84, 4-Amino-1-[4-[6-[(3-fluorophenyl)methyl-methylamino]imidazo[1,2-b]pyridazin-3-yl]phenyl]-4-methylpyrrolidin-2-one], the pIC50 at ROS1 [1] is 8.00 to 9.00; on ROS1 [2] it was 7.00 to 7.70; in assay [3], 7.00 to 7.70.
Take `C[C@@H](Nc1ccc2ncc(-c3ccc(N4C[C@@H](N)CC4=O)cc3)n2n1)c1ccccc1` [Example 88, (4S)-4-Amino-1-[4-[6-[[(1R)-1-phenylethyl]amino]imidazo[1,2-b]pyridazin-3-yl]phenyl]pyrrolidin-2-one]: the figures for the negative logarithm of the IC50 (pIC50) (at ROS1 [1]; on ROS1 [2]; in assay [3]) were > 9.00, > 7.70 and > 7.70, respectively.
As to `Cc1cc(N2C[C@@H](N)CC2=O)ccc1-c1cnc2ccc(N[C@H](C)c3ccccc3)nn12` [Example 89, (4S)-4-Amino-1-[3-methyl-1-[6-[[(1R)-1-phenylethyl]amino]imidazo[1,2-b]yl]phenyl]pyrrolidin-2-one], the values for the pIC50 (on ROS1 [1]; on ROS1 [2]; in assay [3]) were 7.22 to 8.00, 7.00 to 7.70 and 6.22 to 7.00, respectively.
As to `C[C@@H](Nc1ccc2ncc(-c3cccc(N4C[C@@H](N)CC4=O)c3)n2n1)c1cccc(F)c1` [Example 91, (4S)-4-Amino-1-[3-[6-[[(1R)-1-(3-fluorophenyl)ethyl]amino]imidazo[1,2-b]pyridazin-3-yl]phenyl]pyrrolidin-2-one], the pIC50 at ROS1 [1] is 8.00 to 9.00; against ROS1 [2] it was > 7.70; in assay [3] it was 7.00 to 7.70.
With `C[C@@H](Nc1ccc2ncc(-c3ccc(N4C[C@@H](N)CC4=O)c(F)c3)n2n1)c1cccc(F)c1` [Example 92, (4S)-4-Amino-1-[2-fluoro-4-[6-[[(1R)-1-(3-fluorophenyl)ethyl]amino]imidazo[1,2-b]pyridazin-3-yl]phenyl]pyrrolidin-2-one], the figures for the pIC50 (on ROS1 [1]; on ROS1 [2]; in assay [3]) were > 9.00, > 7.70 and > 7.70, respectively.
Take `C[C@@H](Nc1ccc2ncc(-c3ccc(N4C[C@@H](N)CC4=O)cc3F)n2n1)c1cccc(F)c1` [Example 93, (4S)-4-Amino-1-[3-fluoro-4-[6-[[(1R)-1-(3-fluorophenyl)ethyl]amino]imidazo[1,2-b]pyridazin-3-yl]phenyl]pyrrolidin-2-one]: the pIC50 was > 9.00 at ROS1 [1], > 7.70 on ROS1 [2] and > 7.70 in assay [3].
As to `CN(Cc1ccccc1)c1ccc2ncc(-c3ccc(N4C[C@@H](N)CC4=O)cc3)n2n1` [Example 94, (4S)-4-Amino-1-[4-[6-[benzyl(methyl)amino]imidazo[1,2-b]pyridazin-3-yl]phenyl]pyrrolidin-2-one], the pIC50 is 8.00 to 9.00 on ROS1 [1], 7.00 to 7.70 on ROS1 [2] and 6.22 to 7.00 in assay [3].
